Drawing on ChEMBL document CHEMBL4665778, “Discovery of Potent and Selective PI3Kγ Inhibitors” (J Med Chem, 2020), this text covers IC50, Ratio IC50 and hepatocyte CLint for 34 compounds.

In data set [1] the target is T1, Phosphatidylinositol 4,5-bisphosphate 3-kinase catalytic subunit gamma isoform (Homo sapiens, UniProt P48736).
Description: Inhibition of recombinant N-terminal His-tagged full-length human PI3K p120gamma expressed in Sf9 insect cells using phosphatidylinositol 4,5-bisphosphate as substrate preincubated for 60 mins followed by substrate addition and measured after 1 hr in presence of ATP by ADP-Glo lipid kinase assay
Data set [2] deals with T1, Phosphatidylinositol 4,5-bisphosphate 3-kinase catalytic subunit gamma isoform. The source holds these as a separate data set.
Description: Inhibition of PI3Kgamma in human THP-1 cells assessed as reduction in Akt phosphorylation at S473 residue incubated for 60 mins by alphalisa assay
For data set [3], the target named is PI3-kinase p110-alpha/p85-alpha (Homo sapiens, UniProt P42336).
Description: Inhibition of recombinant N-terminal FLAG-tagged full-length human PI3K p110alpha/human p85alpha co- expressed in Sf9 insect cells using phosphatidylinositol 4,5-bisphosphate as substrate preincubated for 60 mins followed by substrate addition and measured after 1 hr in presence of ATP by ADP-Glo lipid kinase assay
For data set [4], the target named is PI3-kinase p110-delta/p85-alpha (Homo sapiens, UniProt O00329).
Description: Inhibition of recombinant N-terminal GST-tagged full-length human PI3K p110delta/p85alpha co- expressed in Sf9 insect cells using phosphatidylinositol 4,5-bisphosphate as substrate preincubated for 60 mins followed by substrate addition and measured after 1 hr in presence of ATP by ADP-Glo lipid kinase assay
For another data set, the target named is PI3K p110 beta/p85 alpha (Homo sapiens, UniProt P42338).
The species entered for the next data set is Homo sapiens. As to the kind of experiment: Selectivity index, ratio of IC50 for N-terminal FLAG-tagged full-length human PI3K p110beta/human p85alpha to IC50 for recombinant N-terminal His-tagged full-length human PI3K p120gamma.
A short description of data set [5]: Intrinsic clearance in human hepatocytes assessed per 10^6 cells at 0.5 uM by LC-MS/MS analysis. It is filed as ADME, cell-based, Hepatocyte. Conditions: read-out: CLH.
The nature of data set [6]: Intrinsic clearance rat hepatocytes assessed per 10^6 cells by LC-MS/MS analysis. As to conditions: read-out: CLH. It is filed as ADME, tissue-based, Hepatocyte.

Bounds are passed on as bounds.

T1 sequence (P48736 whole entry, canonical isoform): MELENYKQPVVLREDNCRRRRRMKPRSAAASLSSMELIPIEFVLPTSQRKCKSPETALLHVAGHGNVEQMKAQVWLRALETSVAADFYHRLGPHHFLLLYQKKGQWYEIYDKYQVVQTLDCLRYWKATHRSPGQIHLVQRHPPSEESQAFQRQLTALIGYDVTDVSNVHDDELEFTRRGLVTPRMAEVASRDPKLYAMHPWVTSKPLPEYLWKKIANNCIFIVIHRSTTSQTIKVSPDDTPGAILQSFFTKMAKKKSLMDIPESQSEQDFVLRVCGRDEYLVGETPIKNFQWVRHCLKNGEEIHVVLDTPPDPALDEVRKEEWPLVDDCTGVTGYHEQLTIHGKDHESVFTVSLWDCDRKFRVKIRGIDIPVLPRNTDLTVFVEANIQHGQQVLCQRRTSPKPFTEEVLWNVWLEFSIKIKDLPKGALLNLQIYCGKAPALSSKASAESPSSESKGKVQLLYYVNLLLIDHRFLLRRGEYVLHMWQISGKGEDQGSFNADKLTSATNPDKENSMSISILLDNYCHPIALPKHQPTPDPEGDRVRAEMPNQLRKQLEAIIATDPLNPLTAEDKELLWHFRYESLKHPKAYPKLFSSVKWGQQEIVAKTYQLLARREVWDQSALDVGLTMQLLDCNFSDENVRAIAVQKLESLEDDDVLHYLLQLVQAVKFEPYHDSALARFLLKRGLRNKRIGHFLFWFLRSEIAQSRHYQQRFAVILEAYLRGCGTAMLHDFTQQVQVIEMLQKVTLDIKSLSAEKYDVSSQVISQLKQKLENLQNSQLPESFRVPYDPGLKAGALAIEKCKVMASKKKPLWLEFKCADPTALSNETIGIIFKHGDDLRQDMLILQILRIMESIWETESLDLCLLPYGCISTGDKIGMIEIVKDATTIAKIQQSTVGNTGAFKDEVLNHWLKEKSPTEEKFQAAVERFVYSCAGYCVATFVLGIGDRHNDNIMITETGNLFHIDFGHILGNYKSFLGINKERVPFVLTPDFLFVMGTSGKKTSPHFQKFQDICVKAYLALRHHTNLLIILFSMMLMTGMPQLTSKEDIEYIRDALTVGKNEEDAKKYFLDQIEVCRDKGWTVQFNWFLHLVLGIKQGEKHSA
Chain of PI3K p110 beta/p85 alpha (P27986 whole entry): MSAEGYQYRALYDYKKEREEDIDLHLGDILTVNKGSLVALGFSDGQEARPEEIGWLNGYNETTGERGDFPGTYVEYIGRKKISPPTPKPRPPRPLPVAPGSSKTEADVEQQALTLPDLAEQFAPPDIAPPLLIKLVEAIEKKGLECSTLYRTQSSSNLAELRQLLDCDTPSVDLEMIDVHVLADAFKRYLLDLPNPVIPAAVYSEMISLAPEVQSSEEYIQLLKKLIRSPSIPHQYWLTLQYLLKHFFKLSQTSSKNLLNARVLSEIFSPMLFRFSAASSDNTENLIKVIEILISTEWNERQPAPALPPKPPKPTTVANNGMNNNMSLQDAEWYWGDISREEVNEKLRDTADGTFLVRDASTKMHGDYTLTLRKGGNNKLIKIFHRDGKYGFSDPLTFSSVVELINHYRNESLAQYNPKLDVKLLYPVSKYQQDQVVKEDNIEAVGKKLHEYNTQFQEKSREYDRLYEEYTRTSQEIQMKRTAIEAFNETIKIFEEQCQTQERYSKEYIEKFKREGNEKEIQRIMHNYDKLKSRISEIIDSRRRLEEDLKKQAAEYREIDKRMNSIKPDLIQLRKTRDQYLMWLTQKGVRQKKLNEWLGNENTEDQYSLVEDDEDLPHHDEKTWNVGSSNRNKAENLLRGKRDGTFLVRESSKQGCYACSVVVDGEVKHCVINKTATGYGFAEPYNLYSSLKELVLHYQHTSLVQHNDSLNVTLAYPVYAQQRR
Chain of PI3K p110 beta/p85 alpha (P42338 whole entry): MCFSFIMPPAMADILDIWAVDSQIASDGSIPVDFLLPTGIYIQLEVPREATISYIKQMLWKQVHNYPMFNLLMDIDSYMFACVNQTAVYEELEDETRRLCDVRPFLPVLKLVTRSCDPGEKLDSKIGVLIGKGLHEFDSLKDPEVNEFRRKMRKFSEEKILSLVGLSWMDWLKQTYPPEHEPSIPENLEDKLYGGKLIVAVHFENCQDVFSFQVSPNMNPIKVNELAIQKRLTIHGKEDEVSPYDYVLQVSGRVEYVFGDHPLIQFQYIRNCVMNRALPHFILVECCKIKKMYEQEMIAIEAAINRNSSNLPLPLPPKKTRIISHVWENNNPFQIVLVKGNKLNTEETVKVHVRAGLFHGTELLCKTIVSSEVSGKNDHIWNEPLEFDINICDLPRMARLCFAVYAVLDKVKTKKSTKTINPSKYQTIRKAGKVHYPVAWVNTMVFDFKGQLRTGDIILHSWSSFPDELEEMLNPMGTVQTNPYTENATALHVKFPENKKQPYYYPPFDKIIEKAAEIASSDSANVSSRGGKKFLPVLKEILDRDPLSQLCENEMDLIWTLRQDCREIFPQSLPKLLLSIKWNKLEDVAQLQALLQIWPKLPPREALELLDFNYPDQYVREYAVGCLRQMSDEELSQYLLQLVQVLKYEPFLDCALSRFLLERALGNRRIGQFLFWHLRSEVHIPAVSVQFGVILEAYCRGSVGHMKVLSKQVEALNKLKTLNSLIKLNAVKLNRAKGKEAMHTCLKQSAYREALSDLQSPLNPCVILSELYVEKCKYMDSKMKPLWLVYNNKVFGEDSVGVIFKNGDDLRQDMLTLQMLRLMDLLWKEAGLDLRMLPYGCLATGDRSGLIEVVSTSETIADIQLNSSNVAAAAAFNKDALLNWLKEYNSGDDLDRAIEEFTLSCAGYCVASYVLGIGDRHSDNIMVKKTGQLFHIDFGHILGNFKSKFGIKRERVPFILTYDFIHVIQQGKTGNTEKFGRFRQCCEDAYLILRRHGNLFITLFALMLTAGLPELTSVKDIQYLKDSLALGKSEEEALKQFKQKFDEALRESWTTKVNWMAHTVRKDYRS
Chain of PI3-kinase p110-alpha/p85-alpha (P27986 whole entry): as the sequence (P27986 whole entry) above
Chain of PI3-kinase p110-alpha/p85-alpha (P42336 whole entry): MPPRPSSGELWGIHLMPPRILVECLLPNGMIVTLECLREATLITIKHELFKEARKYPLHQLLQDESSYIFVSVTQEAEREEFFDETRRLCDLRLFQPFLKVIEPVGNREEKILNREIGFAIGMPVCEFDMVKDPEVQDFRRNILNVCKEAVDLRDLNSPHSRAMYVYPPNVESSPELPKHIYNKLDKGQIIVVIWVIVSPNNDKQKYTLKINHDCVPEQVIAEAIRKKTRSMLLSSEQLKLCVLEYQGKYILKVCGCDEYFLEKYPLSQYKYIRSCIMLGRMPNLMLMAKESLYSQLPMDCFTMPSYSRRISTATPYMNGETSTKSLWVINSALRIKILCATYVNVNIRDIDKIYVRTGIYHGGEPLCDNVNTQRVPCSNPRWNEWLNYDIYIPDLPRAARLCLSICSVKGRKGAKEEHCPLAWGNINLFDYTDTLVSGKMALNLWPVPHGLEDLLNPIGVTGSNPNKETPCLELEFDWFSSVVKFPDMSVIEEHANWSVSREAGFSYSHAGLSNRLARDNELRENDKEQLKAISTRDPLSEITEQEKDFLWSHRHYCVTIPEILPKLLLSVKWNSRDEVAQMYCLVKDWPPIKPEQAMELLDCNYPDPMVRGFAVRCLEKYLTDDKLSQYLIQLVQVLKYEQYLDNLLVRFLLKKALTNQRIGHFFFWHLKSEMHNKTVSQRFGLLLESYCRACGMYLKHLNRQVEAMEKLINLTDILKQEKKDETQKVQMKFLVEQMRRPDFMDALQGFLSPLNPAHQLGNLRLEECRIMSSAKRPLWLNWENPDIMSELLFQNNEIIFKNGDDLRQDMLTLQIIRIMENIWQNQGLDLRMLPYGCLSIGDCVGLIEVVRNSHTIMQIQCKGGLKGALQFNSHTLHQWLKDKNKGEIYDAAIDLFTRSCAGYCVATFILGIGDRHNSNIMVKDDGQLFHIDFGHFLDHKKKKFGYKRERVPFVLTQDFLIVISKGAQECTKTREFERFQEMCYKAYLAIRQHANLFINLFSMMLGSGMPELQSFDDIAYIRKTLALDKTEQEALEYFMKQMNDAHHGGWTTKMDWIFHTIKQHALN
Chain of PI3-kinase p110-delta/p85-alpha (P27986 whole entry): as the sequence (P27986 whole entry) above
Chain of PI3-kinase p110-delta/p85-alpha (O00329 whole entry): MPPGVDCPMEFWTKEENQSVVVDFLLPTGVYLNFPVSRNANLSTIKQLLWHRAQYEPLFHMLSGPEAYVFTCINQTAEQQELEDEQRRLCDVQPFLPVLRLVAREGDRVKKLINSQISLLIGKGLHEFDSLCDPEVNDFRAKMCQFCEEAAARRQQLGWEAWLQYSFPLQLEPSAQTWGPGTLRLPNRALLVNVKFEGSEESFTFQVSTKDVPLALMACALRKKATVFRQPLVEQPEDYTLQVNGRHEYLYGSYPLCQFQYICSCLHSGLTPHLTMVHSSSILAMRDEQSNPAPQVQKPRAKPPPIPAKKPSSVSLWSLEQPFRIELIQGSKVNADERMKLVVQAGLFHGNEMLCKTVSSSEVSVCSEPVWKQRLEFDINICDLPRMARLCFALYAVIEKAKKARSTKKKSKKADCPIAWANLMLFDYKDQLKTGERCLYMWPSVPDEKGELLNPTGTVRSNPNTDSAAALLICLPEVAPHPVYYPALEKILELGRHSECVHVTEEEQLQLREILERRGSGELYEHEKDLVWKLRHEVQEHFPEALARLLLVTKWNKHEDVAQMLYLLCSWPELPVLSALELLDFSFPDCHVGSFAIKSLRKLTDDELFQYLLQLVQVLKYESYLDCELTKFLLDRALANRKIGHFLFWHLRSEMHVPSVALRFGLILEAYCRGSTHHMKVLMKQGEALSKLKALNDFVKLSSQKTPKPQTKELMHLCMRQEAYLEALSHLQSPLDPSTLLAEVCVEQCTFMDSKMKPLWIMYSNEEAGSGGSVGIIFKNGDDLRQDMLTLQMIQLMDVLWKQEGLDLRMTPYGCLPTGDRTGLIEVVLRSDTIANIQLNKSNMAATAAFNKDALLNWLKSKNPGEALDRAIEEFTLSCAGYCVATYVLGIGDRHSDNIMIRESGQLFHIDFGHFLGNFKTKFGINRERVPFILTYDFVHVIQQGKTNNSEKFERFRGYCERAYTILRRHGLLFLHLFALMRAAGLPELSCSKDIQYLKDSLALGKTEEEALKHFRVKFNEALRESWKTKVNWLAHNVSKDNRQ
Description for PI3K p110 beta/p85 alpha: Inhibition of recombinant N-terminal FLAG-tagged full-length human PI3K p110beta/human p85alpha co- expressed in Sf9 insect cells using phosphatidylinositol 4,5-bisphosphate as substrate preincubated for 60 mins followed by substrate addition and measured after 1 hr in presence of ATP by ADP-Glo lipid kinase assay

On to `Cc1cc(-c2ccn3nc(N)c(-c4nc[nH]n4)c3n2)cc2c1C(=O)N([C@@H](C)C1CC1)C2`, for which the IC50 came out at 31 nM in data set [1], 630 nM in data set [2], 6.29 µM in data set [3] and 6.05 µM in data set [4].
Regarding `CC(=O)Nc1nn2ccc(-c3cc(C)c4c(c3)CN([C@@H](C)C3CC3)C4=O)nc2c1-c1cnn(C)c1`, the 50% inhibitory concentration (IC50) in data set [1] is 429 nM; in data set [2] it was 1500 nM; in data set [3], above 10 µM; in data set [4] it was above 10 µM.
Take `CC(=O)Nc1cc2nc(-c3cc4c(c(NS(C)(=O)=O)c3)C(=O)N([C@@H](C)C3CC3)C4)ccn2n1`: the IC50 in data set [1] came to 1.3 nM; in data set [2], 160 nM; in data set [3], 8.97 µM; in data set [4], 6.14 µM.
Consider `Cc1cc(-c2ccn3nc(N)c(-c4cnn(CCO)c4)c3n2)cc2c1C(=O)N([C@@H](C)C1CC1)C2`, for which the IC50 in data set [1] worked out at 6.4 nM; in data set [2], 400 nM; in data set [3], 1.16 µM; in data set [4], 1.16 µM.
For the compound `Cc1cc(-c2ccc3nc(N)nn3c2)cc2c1C(=O)N([C@@H](C)C1CC1)C2` (racemic), the half-maximal inhibitory concentration (IC50) in data set [1] was 291 nM; in data set [2], 15000 nM; in data set [3], above 10 µM; at PI3K p110 beta/p85 alpha, above 10 µM; in data set [4] it was above 10 µM. Also, the Ratio IC50 in the data set filed under Homo sapiens was above 34.
In the case of `CC(=O)Nc1nc2cc(-c3cc(C)c4c(c3)CN([C@@H](C)C3CC3)C4=O)ccc2[nH]1` (racemic), the IC50 was 482 nM in data set [1]; 1000 nM in data set [2]; above 10 µM in data set [3]; above 10 µM against PI3K p110 beta/p85 alpha; above 10 µM in data set [4]. In the data set listed under Homo sapiens, the Ratio IC50 was above 21.
Take `CC(=O)Nc1nc2ccc(-c3cc(C)c4c(c3)CN([C@@H](C)C3CC3)C4=O)cn2n1` (racemic): the IC50 was 76 nM in data set [1]; 3000 nM in data set [2]; above 10 µM in data set [3]; above 10 µM against PI3K p110 beta/p85 alpha; above 10 µM in data set [4]. In addition, the Ratio IC50 in the data set filed under Homo sapiens is above 131.
Consider `Cc1cc(-c2ccc3nc(NC(=O)C(C)C)cn3n2)cc2c1C(=O)N([C@@H](C)C1CC1)C2`, for which the concentration for half-maximal inhibition (IC50) is 70 nM in data set [1], 9400 nM in data set [2], above 10 µM in data set [3] and above 10 µM in data set [4].
Consider `COCC(=O)Nc1cn2nc(-c3cc(C)c4c(c3)CN([C@@H](C)C3CC3)C4=O)ccc2n1`, for which the half-inhibitory concentration (IC50) in data set [1] was 14 nM; in data set [2], 690 nM; in data set [3] it was above 10 µM; in data set [4], above 10 µM.
On to `Cc1cc(-c2ccc3nc(NS(C)(=O)=O)cn3n2)cc2c1C(=O)N([C@@H](C)C1CC1)C2`, for which the IC50 in data set [1] is 5300 nM; in data set [2], above 30000 nM; in data set [3], above 10 µM; in data set [4], above 10 µM.
As for `CNS(=O)(=O)c1cc(-c2ccn3nc(NC(C)=O)cc3n2)cc2c1C(=O)N([C@@H](C)C1CC1)C2`, the IC50 in data set [1] stood at 2.7 nM; in data set [2], 240 nM; in data set [3] it was 9.85 µM; in data set [4], 4.55 µM.
With `Cc1cc(-c2ccc3nc(N)cn3n2)cc2c1C(=O)N([C@@H](C)C1CC1)C2` (racemic), the IC50 is 425 nM in data set [1]; 1500 nM in data set [2]; above 10 µM in data set [3]; above 10 µM at PI3K p110 beta/p85 alpha; above 10 µM in data set [4]. Further, in the data set filed under Homo sapiens, the Ratio IC50 is above 24.
For `C[C@@H](C1CC1)N1Cc2cc(-c3ccn4nc(N)c(-c5ncccn5)c4n3)cc(C(F)(F)F)c2C1=O`, the IC50 in data set [1] is 53 nM; in data set [2], 800 nM; in data set [3] it was above 10 µM; in data set [4], above 10 µM.
Turning to `Cc1cc(-c2ccn3nc(N)c(-c4ccccn4)c3n2)cc2c1C(=O)N([C@@H](C)C1CC1)C2`, the IC50 in data set [1] is 64 nM; in data set [2], 2300 nM; in data set [3] it was above 10 µM; in data set [4], above 10 µM.
On to `CC(=O)Nc1cn2nc(-c3cc(C)c4c(c3)CN([C@@H](C)C3CC3)C4=O)ccc2n1`, for which the IC50 was 5.5 nM in data set [1]; 450 nM in data set [2]; above 10 µM in data set [3]; above 10 µM on PI3K p110 beta/p85 alpha; above 10 µM in data set [4]. In addition, in the data set listed under Homo sapiens, the Ratio IC50 was above 1820.
Consider `Cc1cc(-c2ccc3nc(NC(=O)N4CCC[C@H]4C(N)=O)cn3n2)cc2c1C(=O)N([C@@H](C)C1CC1)C2`, for which the IC50 turned out to be 2.9 nM in data set [1], 460 nM in data set [2], 2.47 µM in data set [3] and 8.21 µM in data set [4].
Consider `Cc1cc(-c2c(N)nn3ccc(-c4cc(C)c5c(c4)CN([C@@H](C)C4CC4)C5=O)nc23)ccc1C(=O)O`, for which the 50% inhibitory concentration (IC50) is 2.2 nM in data set [1], 210 nM in data set [2], 0.096 µM in data set [3] and 0.21 µM in data set [4].
For the compound `Cc1cc(-c2ccn3nc(N)c(-c4ccn[nH]4)c3n2)cc2c1C(=O)N([C@@H](C)C1CC1)C2`, the IC50 turned out to be 44 nM in data set [1], 620 nM in data set [2], 1.98 µM in data set [3] and 2.69 µM in data set [4].
The corresponding values for `Cc1cc(-c2ccc3ncc(-c4cnn(C)c4)n3n2)cc2c1C(=O)N([C@@H](C)C1CC1)C2` are 15 nM, 440 nM, above 10 µM and 2.38 µM.
Regarding `CC(=O)Nc1cc2nc(-c3cc4c(c(C(F)(F)F)c3)C(=O)N([C@@H](C)C3CC3)C4)ccn2n1`, the IC50 in data set [1] is 2.2 nM; in data set [2], 150 nM; in data set [3], 8.34 µM; in data set [4], 2.61 µM. The hepatocyte CLint at 0.5 µM in data set [5] came to 2.4 µL/min/1e6 cells. Besides, in data set [6], the hepatocyte CLint was below 1.2 µL/min/1e6 cells.
For the compound `Cc1nn(C)cc1-c1c(N)nn2ccc(-c3cc4c(c(C(F)(F)F)c3)C(=O)N([C@@H](C)C3CC3)C4)nc12`, the concentration for half-maximal inhibition (IC50) in data set [1] was 8 nM; in data set [2], 470 nM; in data set [3], above 10 µM; in data set [4] it was 4.55 µM.
The corresponding values for `CC(=O)Nc1cc2nc(-c3cc(C)c4c(c3)CN([C@@H](C)C3CC3)C4=O)ccn2n1` are 4.4 nM, 240 nM, above 10 µM and above 10 µM.
Consider `CC(C)c1cc(-c2c(N)nn3ccc(-c4cc5c(c(C(F)(F)F)c4)C(=O)N([C@@H](C)C4CC4)C5)nc23)ccc1C(=O)O`, for which the IC50 in data set [1] worked out at 1 nM; in data set [2], 76 nM; in data set [3], 0.0824 µM; against PI3K p110 beta/p85 alpha, 10.1 µM; in data set [4], 0.125 µM. Besides, the Ratio IC50 in the data set filed under Homo sapiens was 10100.
`Cc1cc(-c2ccc3[nH]c(N)nc3c2)cc2c1C(=O)N([C@@H](C)C1CC1)C2` (racemic): the 50% inhibitory concentration (IC50) was above 10000 nM in data set [1], above 10 µM in data set [3], above 10 µM on PI3K p110 beta/p85 alpha and above 10 µM in data set [4].
As for `Cc1cc(-c2ccn3ncc(-c4cnn(C)c4)c3n2)cc2c1C(=O)N([C@@H](C)C1CC1)C2`, the IC50 stood at 9.1 nM in data set [1], 300 nM in data set [2], 4.14 µM in data set [3] and 3.44 µM in data set [4].
The corresponding values for `Cc1cc(-c2ccn3nc(N)c(-c4ccc(CC(=O)O)cc4)c3n2)cc2c1C(=O)N([C@@H](C)C1CC1)C2` are 2.1 nM, 870 nM, 5.45 µM and 4.66 µM.
The corresponding values for `Cc1cc(-c2ccn3nc(N)cc3n2)cc2c1C(=O)N([C@@H](C)C1CC1)C2` are 60 nM, 4200 nM, above 10 µM and above 10 µM.
In the case of `Cc1cc(-c2ccn3nc(N)nc3c2)cc2c1C(=O)N([C@@H](C)C1CC1)C2`, the IC50 was 50 nM in data set [1]; 3100 nM in data set [2]; above 10 µM in data set [3]; above 10 µM at PI3K p110 beta/p85 alpha; above 10 µM in data set [4]. Further, in the data set listed under Homo sapiens, the Ratio IC50 was above 200.
Turning to `Cc1cc(-c2ccc3nc(N)c(-c4cnn(C)c4)n3n2)cc2c1C(=O)N([C@@H](C)C1CC1)C2`, the half-inhibitory concentration (IC50) in data set [1] was 17 nM; in data set [2], 490 nM; in data set [3] it was above 10 µM; in data set [4] it was above 10 µM.
For `Cc1cc(-c2ccn3nc(N)c(-c4ccncn4)c3n2)cc2c1C(=O)N([C@@H](C)C1CC1)C2`, the IC50 in data set [1] amounted to 7.5 nM; in data set [2] it was 550 nM; in data set [3], 2.73 µM; in data set [4], 2.2 µM.
The corresponding values for `Cc1cc(-c2ccc3nc(NC(=O)c4ccccc4)cn3n2)cc2c1C(=O)N([C@@H](C)C1CC1)C2` are 93 nM, 12000 nM, above 10 µM and above 10 µM.
The corresponding values for `Cc1ncc(-c2c(N)nn3ccc(-c4cc(C)c5c(c4)CN([C@@H](C)C4CC4)C5=O)nc23)o1` are 5.9 nM, 230 nM, 2.26 µM and 3.25 µM.
The corresponding values for `CCC(=O)Nc1cn2nc(-c3cc(C)c4c(c3)CN([C@@H](C)C3CC3)C4=O)ccc2n1` are 7.3 nM, 830 nM, above 10 µM and above 10 µM.
As for `Cc1c(-c2c(N)nn3ccc(-c4cc5c(c(C(F)(F)F)c4)C(=O)N([C@@H](C)C4CC4)C5)nc23)cnn1C`, the half-inhibitory concentration (IC50) in data set [1] stood at 6.6 nM; in data set [2], 440 nM; in data set [3], 1.51 µM; in data set [4], 2.24 µM.

As usually defined, the IC50 is the midpoint of a concentration-inhibition curve. High values mean weaker potency in that assay, low ones greater potency in that assay.
